Measurements reported in PMC5775428, “Towards an experimental classification system for membrane active peptides” (Scientific Reports, 2018).
Where two headings read alike, the source gives them in different places.

What was measured:
Bacillus cereus = test system: Bacillus cereus
Protocol: (§1) Antimicrobial activity was tested against three categories of human and plant pathogenic microorganisms: Gram-positive (Bacillus subtilis, Bacillus cereus, Staphylococcus aureus), Gram-negative (Escherichia coli, Pseudomonas aeruginosa, Erwinia carotovora, Pseudomonas syringae pv. tabaci, Xanthomonas campestris pv. citri) and yeasts (Candida albicans, Cryptococcus neoformans), as previously reported. […] The full list of peptide MICs was published in an accompanying paper, and is available in the current publication as supplementary dataset (Supplementary dataset 01).
(§2) The determination of the minimum inhibitory concentration (MIC) of peptides was performed as described in “Encrypted Antimicrobial Peptides from Plant Proteins”[7]. Briefly, MICs were determined following protocols M7-A10 and M27-A3 from Clinical & Laboratory Standards Institute (CLSI) for bacteria and yeasts, respectively. Different concentrations of IAPs (0.5 to 256 μM) were tested against several microorganisms in a final volume of 100 µL. Three biological repetitions, with 2 technical replicates each, were performed for each test, on polystyrene flat-bottom 96 wells microplates. The minimum inhibitory concentration (MIC) was defined as the concentration at which no cells were detected when visualized by optical microscopy. Please refer to the literature[7] for further details of the microbiological assays.

Bacillus subtilis = details: Bacillus subtilis; for Minimum inhibitory concentration, Average: average of triplicates
Protocol: as §1, §2

Candida albicans = details: Candida albicans; for Minimum inhibitory concentration, Average: average of triplicates
Protocol: as §1, §2

Cryptococcus neoformans = details: Cryptococcus neoformans; for Minimum inhibitory concentration, Average: average of triplicates
Protocol: as §1, §2

Erwinia carotovora = test system: Erwinia carotovora
Protocol: as §1, §2

Escherichia coli = test system: Escherichia coli
Protocol: as §1, §2

Pseudomonas aeruginosa = test system: Pseudomonas aeruginosa
Protocol: as §1, §2

[1] = test system: Pseudomonas syringae pv. tabaci
Protocol: as §1, §2

Staphylococcus aureus = test system: Staphylococcus aureus
Protocol: as §1, §2

Xanthomonas campestris = details: for Minimum inhibitory concentration, Average: average of triplicates
Protocol: as §1, §2

[2] = CLSI M27-A3, 0.5 to 256 μM tested, triplicate 1, also published in ref 7
[3] = Erwinia carotovora, CLSI M7-A10, triplicate 1
[4] = Erwinia carotovora, average of triplicates
[5] = Erwinia carotovora, triplicate 2
[6] = Erwinia carotovora, triplicate 3
[7] = Escherichia coli, CLSI M7-A10, triplicate 1
[8] = Escherichia coli, average of triplicates
[9] = Pseudomonas aeruginosa, CLSI M7-A10, triplicate 1
[10] = Pseudomonas aeruginosa, average of triplicates
[11] = Pseudomonas aeruginosa, triplicate 2
[12] = Pseudomonas aeruginosa, triplicate 3
[13] = Pseudomonas syringae pv. tabaci, CLSI M7-A10, triplicate 1
[14] = Pseudomonas syringae pv. tabaci, average of triplicates
[15] = Pseudomonas syringae pv. tabaci, triplicate 2
[16] = Pseudomonas syringae pv. tabaci, triplicate 3
[17] = Staphylococcus aureus, CLSI M7-A10, triplicate 1
[18] = Staphylococcus aureus, average of triplicates
[19] = Staphylococcus aureus, triplicate 2
[20] = Staphylococcus aureus, triplicate 3

| Sequence | Minimum inhibitory concentration (Bacillus subtilis; CLSI M7-A10, triplicate 1) | Minimum inhibitory concentration, Average (Bacillus subtilis) | Minimum inhibitory concentration (Bacillus subtilis; triplicate 2) | Minimum inhibitory concentration (Bacillus subtilis; triplicate 3) | Minimum inhibitory concentration (Candida albicans; [2]) | Minimum inhibitory concentration, Average (Candida albicans) | Minimum inhibitory concentration (Candida albicans; triplicate 2) | Minimum inhibitory concentration (Candida albicans; triplicate 3) | Minimum inhibitory concentration (Cryptococcus neoformans; CLSI M27-A3, triplicate 1) | Minimum inhibitory concentration, Average (Cryptococcus neoformans) | Minimum inhibitory concentration (Cryptococcus neoformans; triplicate 2) | Minimum inhibitory concentration (Cryptococcus neoformans; triplicate 3) | Minimum inhibitory concentration (Erwinia carotovora; [3]) | Minimum inhibitory concentration, Average (Erwinia carotovora; [4]) | Minimum inhibitory concentration (Erwinia carotovora; [5]) | Minimum inhibitory concentration (Erwinia carotovora; [6]) | Minimum inhibitory concentration (Xanthomonas campestris; CLSI M7-A10, triplicate 1) | Minimum inhibitory concentration, Average (Xanthomonas campestris) | Minimum inhibitory concentration (Xanthomonas campestris; triplicate 2) | Minimum inhibitory concentration (Xanthomonas campestris; triplicate 3) | further results |
| --- | --- | --- | --- | --- | --- | --- | --- | --- | --- | --- | --- | --- | --- | --- | --- | --- | --- | --- | --- | --- | --- |
| FFGHIWHGARTLFRDVFA [Cs02] | 2 µM | 3.3 µM | 4 µM | 4 µM | 32 µM | 32.0 µM | 32 µM | 32 µM | 32 µM | 32.0 µM | 32 µM | 32 µM | 32 µM | 32.0 µM | 32 µM | 32 µM | 32 µM | 32.0 µM | 32 µM | 32 µM | Minimum inhibitory concentration (Bacillus cereus; Bacillus cereus, CLSI M7-A10, triplicate 1): 64 µM; Minimum inhibitory concentration, Average (Bacillus cereus; Bacillus cereus, average of triplicates): 64.0 µM; Minimum inhibitory concentration (Bacillus cereus; Bacillus cereus, triplicate 2): 64 µM; Minimum inhibitory concentration (Bacillus cereus; Bacillus cereus, triplicate 3): 64 µM; Minimum inhibitory concentration (Escherichia coli; [7]): 8 µM; Minimum inhibitory concentration, Average (Escherichia coli; [8]): 8.0 µM; Minimum inhibitory concentration (Escherichia coli; Escherichia coli, triplicate 2): 8 µM; Minimum inhibitory concentration (Escherichia coli; Escherichia coli, triplicate 3): 8 µM; Minimum inhibitory concentration (Pseudomonas aeruginosa; [9]): 512 µM; Minimum inhibitory concentration, Average (Pseudomonas aeruginosa; [10]): 512.0 µM; Minimum inhibitory concentration (Pseudomonas aeruginosa; [11]): 512 µM; Minimum inhibitory concentration (Pseudomonas aeruginosa; [12]): 512 µM; Minimum inhibitory concentration [1, 13]: 4 µM; Minimum inhibitory concentration, Average [1, 14]: 4.0 µM; Minimum inhibitory concentration [1, 15]: 4 µM; Minimum inhibitory concentration [1, 16]: 4 µM; Minimum inhibitory concentration (Staphylococcus aureus; [17]): 8 µM; Minimum inhibitory concentration, Average (Staphylococcus aureus; [18]): 8.0 µM; Minimum inhibitory concentration (Staphylococcus aureus; [19]): 8 µM; Minimum inhibitory concentration (Staphylococcus aureus; [20]): 8 µM |
| GSLHGFMYKYLKNMVLTLF [At01] | 16 µM | 16.0 µM | 16 µM | 16 µM | 16 µM | 16.0 µM | 16 µM | 16 µM | 16 µM | 16.0 µM | 16 µM | 16 µM | 256 µM | 256.0 µM | 256 µM | 256 µM | 128 µM | 128.0 µM | 128 µM | 128 µM | Minimum inhibitory concentration (Bacillus cereus): 128 µM; Minimum inhibitory concentration, Average (Bacillus cereus): 128.0 µM; Minimum inhibitory concentration (Escherichia coli; [7]): 64 µM; Minimum inhibitory concentration, Average (Escherichia coli; [8]): 64.0 µM; Minimum inhibitory concentration (Escherichia coli; Escherichia coli, triplicate 2): 64 µM; Minimum inhibitory concentration (Escherichia coli; Escherichia coli, triplicate 3): 64 µM; Minimum inhibitory concentration (Pseudomonas aeruginosa; [9]): 32 µM; Minimum inhibitory concentration, Average (Pseudomonas aeruginosa; [10]): 32.0 µM; Minimum inhibitory concentration (Pseudomonas aeruginosa; [11]): 32 µM; Minimum inhibitory concentration (Pseudomonas aeruginosa; [12]): 32 µM; Minimum inhibitory concentration [1, 13]: 16 µM; Minimum inhibitory concentration, Average [1, 14]: 16.0 µM; Minimum inhibitory concentration [1, 15]: 16 µM; Minimum inhibitory concentration [1, 16]: 16 µM; Minimum inhibitory concentration (Staphylococcus aureus; [17]): 16 µM; Minimum inhibitory concentration, Average (Staphylococcus aureus; [18]): 16.0 µM; Minimum inhibitory concentration (Staphylococcus aureus; [19]): 16 µM; Minimum inhibitory concentration (Staphylococcus aureus; [20]): 16 µM |
| IVNHLVKLFDKGLNSIVNLR [Tc05] | 64 µM | 64.0 µM | 64 µM | 64 µM | 128 µM | 128.0 µM | 128 µM | 128 µM | 128 µM | 128.0 µM | 128 µM | 128 µM | – | – | – | – | 512 µM | 512.0 µM | 512 µM | 512 µM | Minimum inhibitory concentration (Bacillus cereus): 512 µM; Minimum inhibitory concentration, Average (Bacillus cereus): 512.0 µM; Minimum inhibitory concentration (Erwinia carotovora): 512 µM; Minimum inhibitory concentration, Average (Erwinia carotovora): 512.0 µM; Minimum inhibitory concentration (Escherichia coli): 512 µM; Minimum inhibitory concentration, Average (Escherichia coli): 512.0 µM; Minimum inhibitory concentration (Pseudomonas aeruginosa): 512 µM; Minimum inhibitory concentration, Average (Pseudomonas aeruginosa): 512.0 µM; Minimum inhibitory concentration [1]: 512 µM; Minimum inhibitory concentration, Average [1]: 512.0 µM; Minimum inhibitory concentration (Staphylococcus aureus): 512 µM; Minimum inhibitory concentration, Average (Staphylococcus aureus): 512.0 µM |
